From patent US20110136777A1, “CRYSTALLINE SODIUM SALT OF CEPHALOSPORIN ANTIBIOTIC” (Orchid Chemicals and Pharmaceuticals Limited, priority 2008, published 2011) come the findings set out here.

Molecules are shown by their SMILES. Like-named read-outs stand apart in the source and are kept apart here.

Data set [1] is described as follows: Stability at 25 ± 2° C. & 60 ± 5% RH. The data set is classed as physicochemical. Particulars: for Assay: in % (unit assumed). How it is done:
(§1) In still another embodiment of the present invention, novel anhydrous crystalline polymorph of Ceftiofur sodium (Form A) of formula (I) having the following X-ray diffraction characteristic peaks (±0.2°2θ): 5.68, 6.54, 8.84, 12.82, 13.16, 16.33, 17.36, 18.71, 18.94, 20.25, 21.53, 22.11, 22.79, 24.44, 24.88, 25.46, and 27.00 in °2θ. The anhydrous crystalline Ceftiofur sodium of the present invention has moisture content in the range of 0.4 to 2.0%. The anhydrous Ceftiofur sodium (Form A) is prepared by drying the Ceftiofur sodium either under vacuum or under normal pressure at a temperature in the range of 60-125° C. till the moisture content reaches 0.4 to 2.0%. The moisture content of Ceftiofur sodium is measured by using Karl-Fisher technique. The following tables (Table 2 & 3) provide stability data of anhydrous crystalline Ceftiofur Sodium (Form A) prepared according to this invention. From this table it is evident that the anhydrous crystalline Ceftiofur Sodium prepared according this invention is very stable and highly pure, which is clearly indicated by total RS (Related substances) analysis & the stability data.

Data set [2] in a line: Stability at 40 ± 2° C. & 75 ± 5% RH. The class given is physicochemical. Particulars: for Assay: in % (unit assumed). The procedure:
as §1

Data set [3] is described as follows: Hygroscopic nature of the solid. The class given is physicochemical.
A short description of data set [4]: Tapped bulk density. The data set is classed as physicochemical.
Data set [5] is described as follows: Stability over shelf life (statement in words). To be noted: over the shelf life period.

Consider `CO/N=C(\C(=O)N[C@@H]1C(=O)N2C(C(=O)[O-])=C(CSC(=O)c3ccco3)CS[C@H]12)c1csc(N)n1.[Na+]` [Form A, Ceftiofur sodium], for which the Moisture Content is 1.05% in data set [1] (3 Months); 1.11% in data set [1] (6 month); 1.05% in data set [1] (Initial); 1.08% in data set [2] (3 Months); 1.54% in data set [2] (6 month); 1.05% in data set [2] (Initial). For the same compound, the Total RS (Related substances) in data set [1] (3 Months) was 0.16%; in data set [1] (6 month), 0.21%; in data set [1] (Initial) it was 0.15%; in data set [2] (3 Months), 0.19%; in data set [2] (6 month) it was 0.33%; in data set [2] (Initial), 0.15%. Besides, the Assay in data set [1] (3 Months) amounted to 98.84; in data set [1] (6 month), 99.47; in data set [1] (Initial) it was 99.74; in data set [2] (3 Months), 98.14; in data set [2] (6 month) it was 98.64; in data set [2] (Initial), 99.74. The “Nature (hygroscopicity)” value in data set [3] was “Non-Hygroscopic”; in data set [3] (listed as anhydrous crystalline Ceftiofur sodium), “non-hygroscopic”. In addition, the “Tapped Bulk density” value in data set [4] was determined as 0.7 g/mL. In addition, the Stability entry in data set [5] is given as “good”.
For the compound `CO/N=C(\C(=O)N[C@@H]1C(=O)N2C(C(=O)[O-])=C(CSC(=O)c3ccco3)CS[C@H]12)c1csc(N)n1.[Na+]` [Amorphous, Ceftiofur sodium, reference compound], the “Nature (hygroscopicity)” value in data set [3] (listed as conventional amorphous Ceftiofur sodium) was “highly hygroscopic”. In data set [4], the “Tapped Bulk density” value stood at 0.5 g/mL. Also, the Stability result in data set [5] (listed as amorphous Ceftiofur sodium) is “less stable”.
